Measurements from article PMC3220703, “Effects of DPP-4 Inhibitors on the Heart in a Rat Model of Uremic Cardiomyopathy” (PLoS ONE, 2011).
One block for each compound: values may come before it.

Tests used:
[1] = Pharmacokinetics: plasma AUC(0-∞) in sham-operated and 5/6N rats (HPLC-MS/MS); assay type: in vivo, rat; settings: day 4, mean±SEM; for AUC(0-inf): rat, plasma, po
Description: Sham-operated rats were divided into four control groups (N = 5–6 rats per group) in the same manner.
Chromatography for all assays was achieved on a Phenomenex Luna Phenyl-Hexyl 100A, 3 µm, 50×2 mm analytical HPLC column with gradient elution. The analytes were detected and quantified by HPLC-MS/MS using electrospray ionization in the positive ion mode.
Pharmacokinetic analysis was performed using non-compartmental methods with ToxKin V 3.5 (LogicaCMG ITS AG, Switzerland). The linear trapezoidal rule was used for AUC calculation. The terminal half-life (t(1/2)) was calculated as t(1/2) = ln2/λ(z) with the terminal elimination rate constant λ(z) as slope of the logarithmic-linear regression line lnC(t) = lnC(0 h) – λ(z) × t of two or three data points in the terminal phase. Extrapolated AUC(rest, tz-∞) was calculated according to Aronson et al, using the calculated concentration and time (t(z)) of the last measurable data point.

5/6N rats = experiment: Markers of kidney function before and after drug administration in 5/6N rats; assay type: in vivo, rat; settings: for effect on concentration of osteopontin: 4 days of treatment vs pre-treatment; for Osteopontin: mean±SEM
Description: Creatinine concentration was measured by the Jaffe colorimetric method. Creatinine clearance was estimated as described previously.
For each parameter, the log10-transformed values were analyzed separately using an ANOVA for repeated measurements with factors for experimental group and time as fixed effects. […] These statistical analyses were carried out with the software product SAS (SAS Institute, Cary, NC USA), version 9.2.

uremic rat heart = experiment: Quantitative real-time PCR of BNP and fibrosis markers in uremic rat heart; assay type: in vivo; settings: 7 µmol/kg, 4 days; 5/6N rats; vs untreated 5/6N; in words
Description: Total RNA was extracted from 50 mg snap-frozen tissue by homogenization in peqGold Trifast reagent (Peqlab). Residual genomic DNA was removed with Turbo DNAse (Applied Biosystems). The RNA concentration and purity were assayed by spectrophotometry. First-strand cDNA synthesis was performed with random hexamer primer and 1 µg RNA using High Capacity cDNA Reverse Transcription Kit (Applied Biosystems) according to the manufacturer's instruction. (For further detail see Vinon-Zellweger et al.)
Sequences from the Ensemble database and the online available Primer3 software were used to create specific, intron-spanning primers for the target genes. […] Synthesized primers were obtained from Sigma-Aldrich®.
A total of 10 ng cDNA in 5 µl was normally used as template for amplification. An additional 0.5 µl of each primer (5 pmol) and 12.5 µl of Power SYBR Green PCR Master Mix (Applied Biosystems) were added and diluted with water to a volume of 25 µl. The PCR was performed on an Mx3000P thermal cycler (Stratagene). Reaction conditions were 95°C for 10 min, 40 cycles at 95°C for 15 sec, and 60°C for 60 sec, followed by an examination of the melting curve. All samples were analyzed in triplicate. The amplification efficiency of every reaction was checked with the linear regression method. Expression of the gene of interest was divided by the housekeeping gene, glyceraldehyde-3-phosphate dehydrogenase, and expressed as fold-change compared with the corresponding sham-operated rats group.

active GLP-1 = experiment: Plasma active GLP-1 levels after linagliptin; assay type: in vivo, rat
Description: Figure 5 Active GLP-1 levels in uremic vs sham animals. […] Following the last dose, plasma was taken after the time points indicated and active GLP-1 was detected. Values are given as mean ± SEM. N = 5 sham-operated, and 8-12 rats for 5/6N.
Active (uncleaved, 7–36 amide or 7–37) GLP-1 was detected using the commercially available Multi-Array Assay System (K150JWC) from Meso Scale Discovery following the instructions of the supplier.

[2] = cited from earlier work; for main elimination route: in words
[3] = 7 umol/kg, 5/6N rats, 7 µmol/kg oral once daily
[4] = 7 umol/kg, sham-operated rats, 7 µmol/kg oral once daily
[5] = after (4 days + 72 h) administration, 7.0 µmol/kg
[6] = vs pre-treatment values, in words
[7] = before drug administration, 7.0 µmol/kg group

AUC(0-inf) [1, 3]: 2.44 ± 0.167 µM·h | AUC(0-inf) [1, 4]: 1.77 ± 0.226 µM·h | change of cystatin C following 4 days of treatment (5/6N rats; [6]): significantly increased
SMILES: Cn1c(=O)cc(N2CCC[C@@H](N)C2)n(Cc2ccccc2C#N)c1=O [Alogliptin, alogliptin]
effect on concentration of osteopontin (5/6N rats; 7.0 µmol/kg, in words): significantly reduced | Osteopontin (5/6N rats; [5]): 39.1 ± 8.8 ng/mL

AUC(0-∞) ([1]; 5/6N rats, 7 µmol/kg oral once daily): 748.2 ± 74.52 nmol·h/L | AUC(0-inf) ([1]; 0.5 umol/kg, 5/6N rats, 0.5 µmol/kg oral once daily): 0.258 ± 0.0214 µM·h | AUC(0-inf) ([1]; 0.5 umol/kg, sham-operated rats, 0.5 µmol/kg oral once daily): 0.267 ± 0.0289 µM·h | AUC(0-inf) [1, 3]: 1.25 ± 0.373 µM·h | AUC(0-inf) [1, 4]: 0.748 ± 0.0745 µM·h | AUC(0-∞) ([1]; sham-operated rats, 7 µmol/kg oral once daily): 1252 ± 378.8 nmol·h/L | change of cystatin C following 4 days of treatment (5/6N rats; [6]): trend toward decreasing
SMILES: CC#CCn1c(N2CCC[C@@H](N)C2)nc2c1c(=O)n(Cc1nc(C)c3ccccc3n1)c(=O)n2C [Linagliptin, linagliptin]
mRNA expression of BNP in uremic rat heart (uremic rat heart): significantly reduced | mRNA expression of Col1α1 in uremic rat heart (uremic rat heart): significantly inhibited | mRNA expression of Col3α1 in uremic rat heart (uremic rat heart): significantly inhibited | mRNA expression of TGF-β1 in uremic rat heart (uremic rat heart): significantly inhibited | mRNA expression of TIMP-1 in uremic rat heart (uremic rat heart): significantly inhibited | GLP-1 AUC (active GLP-1; 7 μmol/kg, 5/6N): 201 ng·h/L | GLP-1 AUC (active GLP-1; 7 μmol/kg, sham): 108 ng·h/L | GLP-1 AUC (active GLP-1; 5/6N rats, linagliptin 7 µmol/kg daily for 4 days): 201.0 ng·h/L | increase in GLP-1 in 5/6N rats compared with sham-treated rats (active GLP-1; linagliptin 7 µmol/kg, p = 0.01): 2 fold | GLP-1 AUC (active GLP-1; sham rats, linagliptin 7 µmol/kg daily for 4 days): 108.6 ng·h/L | eliminated via the urine ([2]; oral): 1–5% | elimination via the bile, share of the orally administered dose ([2]; oral): approximately 85% | effect on concentration of osteopontin (5/6N rats; 0.5 µmol/kg, p<0.001, in words): significantly reduced | effect on concentration of osteopontin (5/6N rats; 7.0 µmol/kg, in words): did not reach statistical significance | Osteopontin (5/6N rats; after (4 days + 72 h) administration, 0.5 µmol/kg): 48.1 ± 3.8 ng/mL | Osteopontin (5/6N rats; [5]): 49.4 ± 10.7 ng/mL | Osteopontin (5/6N rats; before drug administration, 0.5 µmol/kg group): 70.9 ± 4.7 ng/mL | Osteopontin (5/6N rats; [7]): 54.2 ± 10.0 ng/mL

AUC(0-inf) [1, 3]: 6.24 ± 0.423 µM·h | AUC(0-inf) [1, 4]: 3.69 ± 0.103 µM·h | change of cystatin C following 4 days of treatment (5/6N rats; [6]): unchanged
SMILES: N[C@@H](CC(=O)N1CCn2c(nnc2C(F)(F)F)C1)Cc1cc(F)c(F)cc1F [Sitagliptin, sitagliptin]
main elimination route [2]: via the kidney | effect on concentration of osteopontin (5/6N rats; 7.0 µmol/kg, in words): significantly reduced | Osteopontin (5/6N rats; [5]): 33.4 ± 2.4 ng/mL | Osteopontin (5/6N rats; [7]): 48.5 ± 4.4 ng/mL | change of β2-microglobulin concentration following 4 days of treatment (5/6N rats; [6]): increasing the concentration of β2-microglobulin

SMILES: N#C[C@@H]1CCCN1C(=O)CNC12CC3CC(CC(O)(C3)C1)C2 [vildagliptin]
main elimination route [2]: via the kidney
